Several values for one entry are separate records, joined by “and”; a condition that tells them apart may be missing. Equal entries are not always repeated. Structures can show the parent of a compound that is named as a salt.
What was measured:
[1] = IVRT Franz cell skin penetration, excised pig skin; format: in vitro ADME; details: for Penetration (%), Sample 1-3 / Penetration (%), Average: pig skin; for Penetration (%), Sample 1-3: single replicates, Hydrochloride
From the text: (§1) Transdermal penetration of a particular formulation can be assessed with in vitro release testing (IVRT) using a Franz cell. See Bartosova and Bajagar, “Transdermal Drug Delivery In Vitro Using Diffusion Cells,” Current Medicinal Chemistry, 2012, 19, 4671-4677.
(§2) In order to determine the dermal absorption and bioavailability of topically applied 10% Phenylephrine Hydrochloride solution, we used an IVRT experimental setup with both skin excised from pig ears and a synthetic skin model (Maine Manufacturing, LLC, Me., USA).
In the example, the following data was obtained from a Franz cell diffusion experiment using excised pigskin barrier. A 50 microliter aliquot of a phenylephrine solution was allowed to penetrate through 9 mm diameter sample of pigskin into a 5 mL reservoir of phosphate buffered saline. Phenylephrine concentration was determined in the reservoir by measuring the optical absorbance at 214 nm at time points subsequent to the application of the formulation. In the following example the test solution was 10% (w/w) phenylephrine, 10% (w/w) Dimethyl Isosorbide, and 80% (w/w) ethanol. From the data below, it can be concluded that the formulation can be deemed “successful” because 82% of the applied drug penetrated the pigskin membrane in 3 hours. The experiment was run in triplicate. The average of all three data is shown. It is envisioned that additional studies may be undertaken with other models of in vitro release testing or with variations of the same model to compare with the data reported below.

nipple areola complex [2] = experiment: Iontophoresis patch erection of the nipple areola complex (Example 10); format: in vivo, human; details: 1.3 mL 1% solution, iontophoresis patch 1 hour
Experimental: In the following experiment, a commercially available iontophoresis patch was used to erect the nipple of a subject.
1. The nipple and areola of each breast were prepared by cleaning with a sterile alcohol pad.
2. Two Inotopatch 80 (Travanti Medical) patches were removed from packaging.
3. The positive electrode of the first patch was filled with 1.3 mL of a 1% phenylephrine hydrochloride.
4. The negative electrode of the first patch was filled with 1.3 mL of a saline solution.
5. The positive electrode (approximately 1.5 cm diameter) containing the drug was placed over the nipple areola complex of the right breast; the negative electrode was placed on the adjacent breast tissue outside the nipple areola complex of the right breast.
6. Steps 2-5 were repeated, however, both electrodes of the Inotopatch 80 were filled with 1.3 mL of saline. The patch was applied to left breast following the procedure of step 5.
7. The patches were left in place (adhesive) for 1 hour (dosage=[…], 80 mA/min).
8. After 1 hour the patches were removed.

nipple-areola complex = experiment: Phenylephrine FSFI orgasm domain study (Example 8); format: in vivo, human
Experimental: Phenylephrine HCl 15%. A study was conducted to evaluate the effect of Phenylephrine HCl 15% on the FSFI orgasm domain. Three premenopausal subjects participated in the study. Subjects were not hypertensive, pregnant or breastfeeding.

nipple areole complex [3] = experiment: Pilot study in female sexual dysfunction, SSE by Sexual Activity Record (Example 4)
[4] = IVRT skin penetration, synthetic skin model; format: in vitro ADME; details: 10% solution
From the text: as §1, §2

nipple areole complex [5] = experiment: Pilot dose study of nipple erection and sensitivity, topical phenylephrine (Example 3); format: in vivo, human; details: 10% topical solution
Experimental: A pilot study was conducted to assess the dosage of topical phenylephrine solution required to elicit nipple erection and sensitivity. […] Two subjects were post-menopausal and the reminder three were pre-menopausal. Subjects were not hypertensive, pregnant or breastfeeding. Three formulations were used: Formula A: 0% topical phenylephrine hydrochloride solution; Formula B: 5% topical phenylephrine hydrochloride solution; Formula C: 10% topical phenylephrine hydrochloride solution.
The study was conducted over 3 days. On day 1, subjects were instructed to apply on the left nipple Formula A and on the right nipple Formula B. On day 2, subjects were instructed to apply on the left nipple Formula A and on the right nipple Formula C. On day 3, subjects were instructed to apply on the left nipple Formula B and on the right nipple Formula C. 0.1 mL of each formula was applied with a cotton swab to the nipple areole complex. […] With the 10% topical phenylephrine solution, response in nipple erection and sensitivity was obtained in less than 30 minutes and lasted for 3-4 hours.

nipple areola complex [6] = experiment: Restoration of nipple sensitivity post breast surgery, case study (Example 11); format: in vivo, human; details: Likert scale (1-10), 45 minutes after 10% solution, single patients; Hydrochloride
Experimental: A case study was conducted to assess the efficacy of a topical phenylephrine solution in increasing nipple sensitivity in patients that reported a loss in nipple sensitivity post breast surgery. Five subjects ages 36-65 participated in the study. Subjects were asked to rate their nipple sensitivity on a Likert scale (1-10) before surgery and currently (i.e., after surgery). Next, patients were asked to apply a 10% phenylephrine solution to each nipple areola complex. 45 minutes after application of the drug, patients were asked again to rate their nipple sensitivity on a Likert scale (1-10).

[7] = Phenylephrine HCl 15%, single subjects, Hydrochloride

CNC[C@H](O)c1cccc(O)c1 [Phenylephrine HCl, Phenylephrine Hydrochloride]
average absorption per nipple-areola complex ([1]; 0.1 mL of 10% solution not removed for 24 hours): 8.3 mg
applied drug penetrated the pigskin membrane ([1]; 10% (w/w) in 10% Dimethyl Isosorbide, 80% ethanol, 3 hours): 82%
Penetration (%), Sample 1-3 ([1]; 10% solution, 50 microliter, 1 h): 32.3% and 2.1% and 0.7%
Penetration (%), Average ([1]; 10% solution, 1 h): 11.7%
Penetration (%), Average ([1]; 10% solution, 2 h): 61.1%
Penetration (%), Sample 1-3 ([1]; 10% solution, 2 h): 80.6% and 89.0% and 13.6%
Penetration (%), Average ([1]; 10% solution, 3 h): 82.8%
Penetration (%), Sample 1-3 ([1]; 10% solution, 3 h): 78.9% and 87.5% and 81.9%
Penetration (%), Average ([1]; 10% solution, 4 h): 81.0%
Penetration (%), Sample 1-3 ([1]; 10% solution, 4 h): 78.6% and 83.4% and 81.1%
Penetration (%), Average ([1]; 10% solution, 5 h): 81.9%
Penetration (%), Sample 1-3 ([1]; 10% solution, 5 h): 78.5% and 86.0% and 81.3%
Penetration (%), Average ([1]; 10% solution, 24 h): 81.6%
Penetration (%), Sample 1-3 ([1]; 10% solution, 24 h): 81.3% and 83.1% and 80.3%
maximal skin absorption in 24 hours ([1]; 10% solution, skin excised from pig ears): ≤ 83%
nipple sensitivity (nipple areola complex [2]; one subject): increased sensitivity in the right nipple compared to the left nipple
nipple erection (nipple areola complex [2]; right nipple vs saline left): visibly erect
adverse events (nipple-areola complex; 15%): No adverse events were reported
subjects with increased sensitivity and nipple erection (nipple-areola complex; 15%, subjects without response to 10%): 3 of 5
FSFI Scale How Difficult to Reach Orgasm, Intervention (nipple-areola complex; [7]): 5 (2×) and 4
FSFI Scale How Often Orgasm was Reached, Intervention (nipple-areola complex; [7]): 5 and 4 (2×)
nipple sensitivity past application (nipple-areola complex; report): ≤ 12 h
Number of SSE (1 week) (nipple areole complex [3]; 0.1 mL 10% solution per NAC about 1 hour before sexual activity, single subjects, Hydrochloride): 2 (2×) and 1 (2×) and 6 and 3 (3×) and 4
time nipples remained sensitive (nipple areole complex [3]; 10% solution): 3 to 4 h
time to increased nipple sensitivity after application (nipple areole complex [3]; 10% solution, all subjects): ≤ 30 min
subjects with significant change in number of SSEs from baseline (nipple areole complex [3]; nine subjects, one week): Seven subjects reported significant change in the number of SSEs from baseline
adverse events (nipple areole complex [3]; one subject of nine): slightly painful nipple erection
persistence of sensitivity (nipple areole complex [3]; one subject with initial slightly painful nipple erection): approximately 8 hours
desire (modified FSFI desire domain) (nipple areole complex [3]; subjects reporting increase in number of SSEs): increased desire
maximal skin absorption in 24 hours [4]: ≤ 83%
duration of response in nipple erection and sensitivity (nipple areole complex [5]): 3 to 4 h
time to response in nipple erection and sensitivity (nipple areole complex [5]): less than 30 minutes
Nipple Sensitivity, Post-Surgery + Drug (nipple areola complex [6]): 6 (2×) and 1 and 8 (2×)

From US20170165253A1, “TREATMENT OF SEXUAL DYSFUNCTION AND FOR IMPROVED SEXUAL QUALITY OF LIFE” (ReJoy, priority 2015, published 2017)
